Reference: patent US12037324B2, “Biarylmethyl heterocycles” (Université de Montréal, priority 2016, dated 2024)
pEC50: −log10 of the molar value.

How the values were obtained:
Type in all cases: cell-based
AGTR1 [1] = biological target: T1, AGTR1 (Homo sapiens, UniProt P30556); test: DiscoveRx β-arrestin2 recruitment assay (enzyme complementation, Pathunter CHO-K1 AGTR1 β-arrestin cell line); settings: DiscoveRx β-arrestin2 recruitment; for DiscoveRx β-arrestin2 Ymax (%): maximal response
T1 construct: host or cells: Pathunter CHO-K1 AGTR1 β-arrestin cell line (CHO-K1)
T1 sequence (P30556 1-359): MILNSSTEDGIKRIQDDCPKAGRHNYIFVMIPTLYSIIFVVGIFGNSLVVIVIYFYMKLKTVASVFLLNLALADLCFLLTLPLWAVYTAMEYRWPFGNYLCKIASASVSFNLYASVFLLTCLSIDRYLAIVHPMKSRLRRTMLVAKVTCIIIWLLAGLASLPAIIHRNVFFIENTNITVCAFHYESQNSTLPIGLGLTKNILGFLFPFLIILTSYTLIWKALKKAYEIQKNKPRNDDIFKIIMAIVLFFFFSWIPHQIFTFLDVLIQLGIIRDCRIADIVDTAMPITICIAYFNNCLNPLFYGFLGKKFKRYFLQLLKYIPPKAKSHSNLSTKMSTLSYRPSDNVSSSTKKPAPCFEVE
Summary of the method: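 CHO-K1 cells expressing AGTR1 with β-arrestin2 enzyme-complementation reporter, plated 14-16 h ahead in 1% serum medium, then exposed to compounds for 90 min at 37° C. Chemiluminescence read after 1 h detection. EC50 (agonist) or IC50 (antagonist) from 4-parameter logistic fit; activity as percentage of All maximal effect.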

AGTR1 [2] = biological target: T1, AGTR1; test: DiscoveRx IP1 accumulation assay (HTRF), agonist mode, Pathunter CHO-K1 AGTR1 β-arrestin cell line; settings: for pEC50: read-out: IP-1 EC50
Summary of the method: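 Agonist mode in CHO-K1 AGTR1 β-arrestin cells plated 14-16 h before; compounds at varying concentrations for 90 min at 37° C, IP1 accumulation read by HTRF (D2-conjugate and anti-IP1 cryptate, 20 min room temperature). EC50 from 4-parameter logistic fit; activity given as percentage of maximal AII effect.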

hAT1R = biological target: T2, hAT1R (Homo sapiens, UniProt P30556); test: BRET β-arrestin2 biosensor assay, higher receptor expression (hAT1R 5 ng/well), HEK293 cells; settings: for pEC50: High AT1R Expression
T2 sequence (P30556 1-359): T1 sequence (P30556 1-359)

Row | Structure (SMILES) | pEC50 (AGTR1 [1]) | DiscoveRx β-arrestin2 Ymax (%) (AGTR1 [1]) | IP-1 Ymax (%) (AGTR1 [2]) | pEC50 (AGTR1 [2]) | BRET β-Arrestin2 High AT1R Expression Ymax (%) (hAT1R) | pEC50 (hAT1R)
1 | CCc1nc2c(C)cc(C)nc2n1Cc1ccc(-c2cc(N3CCCC(C)(C)C3)ccc2-c2nn[nH]n2)cc1 [Example 98, 3-((5′-(3,3-dimethylpiperidin-1-yl)-2′-(2H-tetrazol-5-yl)-[1,1′-biphenyl]-4-yl)methyl)-2-ethyl-5,7-dimethyl-3H-imidazo[4,5-b]pyridine] | 7.73 | 72.9 | 6.6 | 7.57 | 86.6 | 7.69
2 | CCCCC1=NC2(CCCC2)C(=O)N1Cc1ccc(-c2cc(Nc3ccccc3)ccc2-c2nn[nH]n2)cc1 [Example 99, 2-butyl-3-((5′-(phenylamino)-2′-(2H-tetrazol-5-yl)-[1,1′-biphenyl]-4-yl)methyl)-1,3-diazaspiro[4.4]non-1-en-4-one] | 7.49 | 6.3 | – | < 4.00 | 9.6 | 6.84
3 | CCCCC1=NC2(CCCC2)C(=O)N1Cc1ccc(-c2cc(N3CCC(C)CC3)ccc2-c2nn[nH]n2)cc1 [Example 100] | 7.54 | 12.7 | 6.1 | 7.30 | 19.4 | 6.81
4 | CCCCC1=NC2(CCCC2)C(=O)N1Cc1ccc(-c2cc(N3CCCC(C)(C)C3)ccc2-c2nn[nH]n2)cc1 [Example 102] | 7.35 | 41.0 | 3.8 | 6.14 | 71.6 | 7.00
5 | CCCCC1=NC2(CCCC2)C(=O)N1Cc1ccc(-c2cc(N3CCC[C@H](C)C3)ccc2-c2nn[nH]n2)cc1 [Example 104] | 6.94 | 9.1 | – | < 4.00 | 23.4 | 6.46
6 | CCCCC1=NC2(CCCC2)C(=O)N1Cc1ccc(-c2cc(-n3ccc4ccccc43)ccc2-c2nn[nH]n2)cc1 [Example 105] | 7.80 | 31.0 | – | < 4.00 | 58.0 | 7.54
7 | CCCCC1=NC2(CCCC2)C(=O)N1Cc1ccc(-c2cc(N3CCC[C@@H](C)C3)ccc2-c2nn[nH]n2)cc1 [Example 106] | 7.75 | 6.3 | – | < 4.00 | 12.4 | 6.86
8 | CCCCC1=NC2(CCCC2)C(=O)N1Cc1ccc(-c2cc(N3CC(C)(C)c4ccccc43)ccc2-c2nn[nH]n2)cc1 [Example 107] | 7.57 | 24.6 | – | < 4.00 | 54.3 | 6.65
9 | CCCCC1=NC2(CCCC2)C(=O)N1Cc1ccc(-c2cc(-n3ccc4ccc(F)cc43)ccc2-c2nn[nH]n2)cc1 [Example 109] | 7.71 | 17.4 | – | < 4.00 | 59.9 | 7.14
10 | CCCCC1=NC2(CCCC2)C(=O)N1Cc1ccc(-c2cc(N3CCCC(F)(F)C3)ccc2-c2noc(=O)[nH]2)cc1 [Example 121, 3-(4′-((2-butyl-4-oxo-1,3-diazaspiro[4.4]non-1-en-3-yl)methyl)-5-(3,3-difluoropiperidin-1-yl)-[1,1′-biphenyl]-2-yl)-1,2,4-oxadiazol-5(4H)-one] | 6.52 | 47.4 | 7.2 | 6.43 | 98.0 | 6.37
11 | CCCCC1=NC2(CCCC2)C(=O)N1Cc1ccc(-c2cc(-c3ccsn3)ccc2-c2nn[nH]n2)cc1 [Example 123, 2-butyl-3-((5′-(isothiazol-3-yl)-2′-(2H-tetrazol-5-yl)-[1,1′-biphenyl]-4-yl)methyl)-1,3-diazaspiro[4.4]non-1-en-4-one] | 8.01 | 4.9 | – | < 4.00 | 20.6 | 7.19
12 | CCCCC1=NC2(CCCC2)C(=O)N1Cc1ccc(-c2cc(-c3ccc(C(=O)NC)cc3)ccc2-c2nn[nH]n2)cc1 [Example 124] | 7.19 | 28.1 | – | < 4.00 | 32.6 | 6.86
13 | CCCCC1=NC2(CCCC2)C(=O)N1Cc1ccc(-c2cc(-c3cccnc3)ccc2-c2nn[nH]n2)cc1 [Example 125] | 7.34 | 16.6 | – | < 4.00 | 15.1 | 6.52
14 | CCCCC1=NC2(CCCC2)C(=O)N1Cc1ccc(-c2cc(-c3ccc(CO)cc3)ccc2-c2nn[nH]n2)cc1 [Example 126] | 8.28 | 17.3 | – | < 4.00 | 65.1 | 7.33
15 | CCCCC1=NC2(CCCC2)C(=O)N1Cc1ccc(-c2cc(-c3ccccc3CO)ccc2-c2nn[nH]n2)cc1 [Example 128] | 7.59 | 14.5 | – | < 4.00 | 11.0 | 6.88
16 | CCCCC1=NC2(CCCC2)C(=O)N1Cc1ccc(-c2cc(-c3ccsc3)ccc2-c2nn[nH]n2)cc1 [Example 130] | 7.66 | 31.2 | 5.9 | 6.97 | 80.0 | 7.58
17 | CCCCC1=NC2(CCCC2)C(=O)N1Cc1ccc(-c2cc(-c3cccs3)ccc2-c2nn[nH]n2)cc1 [Example 131] | 7.86 | 19.1 | – | < 4.00 | 42.5 | 7.31
18 | CCCCC1=NC2(CCCC2)C(=O)N1Cc1ccc(-c2cc(-c3ccc(OC(F)(F)F)cc3)ccc2-c2nn[nH]n2)cc1 [Example 134] | 7.13 | 40.3 | 4.0 | 6.99 | 77.0 | 6.80
19 | CCCCC1=NC2(CCCC2)C(=O)N1Cc1ccc(-c2cc(-c3cccc(F)c3F)ccc2-c2nn[nH]n2)cc1 [Example 135] | 7.86 | 38.6 | – | < 4.00 | 94.8 | 7.54
20 | CCCCC1=NC2(CCCC2)C(=O)N1Cc1ccc(-c2cc(-c3ccc(OC(F)F)cn3)ccc2-c2nn[nH]n2)cc1 [Example 136] | 8.31 | 43.2 | 18.1 | 7.84 | 94.2 | 8.00
21 | CCCCC1=NC2(CCCC2)C(=O)N1Cc1ccc(-c2cc(-c3cscn3)ccc2-c2nn[nH]n2)cc1 [Example 137] | < 4.00 | – | – | < 4.00 | 12.2 | 7.45
22 | CCCCC1=NC2(CCCC2)C(=O)N1Cc1ccc(-c2cc(-c3cccc(C(F)(F)F)n3)ccc2-c2nn[nH]n2)cc1 [Example 142] | 7.56 | 22.7 | 4.8 | 6.85 | 82.9 | 7.23
23 | CCCCC1=NC2(CCCC2)C(=O)N1Cc1ccc(-c2cc(-c3ccccc3)ccc2-c2noc(=O)[nH]2)cc1 [Example 143, 3-(4″-((2-butyl-4-oxo-1,3-diazaspiro[4.4]non-1-en-3-yl)methyl)-[1,1′:3′,1″-terphenyl]-4′-yl)-1,2,4-oxadiazol-5(4H)-one] | 8.08 | 47.4 | 5.2 | 7.74 | 94.6 | 8.09
24 | CCCCC1=NC2(CCCC2)C(=O)N1Cc1ccc(-c2cc(-c3cccc(F)c3F)ccc2-c2noc(=O)[nH]2)cc1 [Example 144, 3-(4″-((2-butyl-4-oxo-1,3-diazaspiro[4.4]non-1-en-3-yl)methyl)-2,3-difluoro-[1,1′:3′,1″-terphenyl]-4′-yl)-1,2,4-oxadiazol-5(4H)-one] | 7.91 | 33.3 | – | < 4.00 | 104.0 | 7.57
25 | CCCCC1=NC2(CCCC2)C(=O)N1Cc1ccc(-c2cc(-c3ccccc3)ccc2C(=O)O)cc1 [Example 145, 4″-((2-butyl-4-oxo-1,3-diazaspiro[4.4]non-1-en-3-yl)methyl)-[1,1′:3′,1″-terphenyl]-4′-carboxylic acid] | 7.56 | 36.3 | 3.1 | 7.24 | 81.5 | 7.19
